Values after ≈ are worked out from the molar mass of the structure shown. Values joined by “and” are separate entries in the source; they are usually repeats but may differ in a detail not shown here. Identical values can stand only once. Square brackets hold non-standard residues; d marks the D form. Peptide text beside a SMILES is read from it.
What was measured:
[1] = test system: HSV-1-infected THP1 cells; assay: qPCR of IFNB1/CXCL10/IL6 mRNA in THP1 cells stimulated by HSV-1 infection; type: cell-based, human; details: HSV-1, XQ2B
[2] = test system: THP1 cells stimulated with poly (I: C) (TLR3 and RIG-I/MDA-5 pathways); assay: qPCR of IFNB1 mRNA in THP1 cells stimulated by poly (I: C); type: cell-based, human
Source text: We next evaluated the inhibitory effect of XQ2 against cGAS in murine fibroblast L929 cells, macrophage RAW264.7 cells and primary bone marrow-derived macrophages (BMDMs) from C57BL/6 mice.
(§1) The indicated cells were stimulated with either ISD (Sangon Biotech), HSV-1 (Provided by Dr. Zhengfan Jiang), HSV60mer (Sangon Biotech), SATE-cddA[70], 2’3’-cGAMP (Invivogen, Cat# tlrl-nacga23-1), ADU-S100 (MedChemExpress, Cat# HY-12885A) or Poly(I:C) (Invivogen, Cat# tlrl-pic) after XQ2 or XQ2B treatment. Total RNA was isolated from indicated cells that incubated with the drugs for indicated time or mice tissues by using NucleoZOL reagent (MACHEREY-NAGEL) according to the manufacturer’s instructions. The quantifications of mRNA levels were carried out by real-time PCR using a PerfectStart® Uni RT&qPCR Kit (TransGen Biotech) on the QuantStudio 5 qPCR machine (Applied Biosystems). Samples were carried out in triplicate and the target CT values were normalized to GAPDH CT values. Primers of qPCR used in this study can be found in Supplementary Table S2.

[3] = test system: primary human PBMCs; assay: qPCR of IFNB1 and IL6 mRNA in ISD-stimulated PBMCs; type: cell-based; parameters: key to IFNB1 mRNA, qPCR, Fig. 2c / IL6 mRNA, qPCR, Fig. 2c / IFNB1 mRNA (Fig. S7f) / IL6 mRNA (Fig. S7f): relative mRNA level, target CT normalized to GAPDH CT
Description: as §1

[4] = in vitro; details: human, THP1 cells, Cell viability (Fig. S7a)
Description: (§2) Cell viability was measured by cell counting kit-8 (TargetMol) according to the manufacturer’s instructions.
(§3) Supplementary Fig. 2. […]
(§4) (e-g) THP1 cells (e), L929 cells (f) and RAW264.7 cells (g) were exposed to the indicated doses of XQ2 for 48h, the cell viability was measured by CCK8 assay. Data are representative of three independent experiments in (a-g). (Data are presented as mean ± SD, n = 3 independent samples in (a-g), **p < 0.01, ***p < 0.001, ****p < 0.0001 using one-way ANOVA with Dunnett’s post hoc test).
(§5) Source data are provided as a Source Data file. […]
(§6) Relative viability(%) XQ2B
(§7) Supplementary Fig. 7. […] (a) THP1 cells were exposed to the indicated doses of XQ2 or XQ2B for 48h. The cell viability was measured by CCK8 assay. […]
(§8) Data are representative of three independent experiments with similar results in (e), or three independent experiments in (a -d, f, g) . (Data are presented as mean ± SD, n = 3 independent samples in (a-d, f, g), ns, not significant, **p < 0.01, ***p < 0.001, ****p < 0.0001 using one-way ANOV A with Dunnett’s post hoc test). Source data are provided as a Source Data file.

[5] = test system: THP1 cells; assay: in vitro; details: for Cell viability (Fig. S7a): human, THP1 cells
Description: as §2, §3, §4, §5, §6, §7, §8

[6] = test system: L929 cells; assay: ISD-induced autophagy, LC3-II immunoblotting; type: cell-based, mouse
Description: Total cell lysates were prepared in RIPA lysis buffer (Beyotime Biotechnology) supplemented with 1 mM PMSF and 1× protease inhibitor cocktail (Yeasen), and nuclear protein was extracted by nuclear protein extraction kit (Solarbio) in accordance with the manufacturer’s instructions. The samples were separated by SDS-PAGE and transferred to the PVDF membrane (Millipore). The membranes were incubated with the indicated primary antibodies at 4 °C overnight and then incubated with an HRP-conjugated anti-rabbit IgG antibody (Cell Signaling, Cat# 7074, 1:5000) or anti-mouse IgG antibody (Cell Signaling, Cat# 7076, 1:5000) at room temperature for 1 h. The signal was visualized by using the NcmECL Ultra kit (New Cell & Molecular Biotech) and then was exposed by using MiniChemi (SageCreation).
(§9) Supplementary Fig. 3. […] (a) L929 cells were pretreated for
(§10) 4 h with DMSO or the indicated doses of XQ2, followed by stimulation with dsDNA for 4 h, and then cell lysates were
(§11) (b) Jurkat cells were exposed to the indicated doses of XQ2, and then stimulated with
(§12) Data are representative of three independent experiments in (a, b). (Data are presented as mean ± SD, n = 3 independent
(§13) provided as a Source Data file.
(§14) (1 picture or pasted object on this page, not shown here)

[7] = test system: Jurkat cells
Description: as §2, §9, §10, §11, §12, §13, §14

[8] = Solubility in water (spectrophotometer at 280nm, turbidity); details: water
Description: Supplementary Fig. 7. […] (a) THP1 cells were exposed to the indicated doses of XQ2 or XQ2B for 48h. The cell viability was measured by CCK8 assay. (b) The comparison of solubility of XQ2 and XQ2B. The maximum concentration of XQ2 or XQ2B dissolved in water was measured by a spectrophotometer at 280nm. […]
as §8

SMILES: CC(C)C[C@@H]1NC(=O)[C@H](CCCNC(=N)N)NC(=O)[C@H](C(C)C)NC(=O)[C@@H]2CCCN2C(=O)[C@@H](Cc2ccccc2)NC(=O)[C@H](CC(C)C)NC(=O)[C@H](CCCNC(=N)N)NC(=O)[C@H]([C@@H](C)O)NC(=O)[C@H](C)NC(=O)[C@@H](Cc2ccccc2)NC1=O [XQ2B] (cyclo([dF]ATRL[dF]PVRL))
- IFNB1 mRNA level (Fig. S7c) [1]: 7.282 and 8.679 and 8.662
- IFNB1 mRNA level (Fig. S7c) ([2]; Poly(I:C), XQ2B): 1527.76 and 1720.01 and 1878.29
- poly (I: C)-induced IFNB1 expression ([2]; THP1, 10 μM): no significant effect on signaling induced by STING agonists or TLR3 agonist such as poly (I: C)
- ISD-induced IFNB1 and IL6 expression in PBMCs ([3]; 10 μM): significantly inhibit the activation of cGAS induced by ISD
- IFNB1 mRNA (Fig. S7f) ([3]; PBMCs, ISD+XQ2B): 841.807 and 913.377 and 771.009
- IL6 mRNA (Fig. S7f) ([3]; PBMCs, ISD+XQ2B): 1185.13 and 642.626 and 1199.71
- viability at 48 h, 0.195312 µM [4]: 100%
- viability at 48 h, 0.390625 µM [4]: 98%
- viability at 48 h, 0.78125 µM [4]: 101%
- viability at 48 h, 1.5625 µM [4]: 108%
- viability at 48 h, 3.125 µM [4]: 97.6%
- viability at 48 h, 6.25 µM [4]: 113%
- viability at 48 h, 12.5 µM [4]: 100%
- viability at 48 h, 25 µM [4]: 104%
- viability at 48 h, 50 µM [4]: 68.2%
- viability at 48 h, 100 µM [4]: 3.61%
- viability at 48 h, 200 µM [4]: 3.63%
- viability at 48 h, 400 µM [4]: 3.62%
- cytotoxicity [5]: less cytotoxicity
- IC50 ([5]; 48 h): 89.5 ± 31.9 µM
- Cell viability (Fig. S7a) ([5]; 48 h, 0.195312 µM): 104.965
- Cell viability (Fig. S7a) ([5]; 48 h, 0.390625 µM): 103.952
- Cell viability (Fig. S7a) ([5]; 48 h, 100 µM): 3.53
- Cell viability (Fig. S7a) ([5]; 48 h, 200 µM): 3.549
- Cell viability (Fig. S7a) ([5]; 48 h, 400 µM): 3.541
- ISD-induced autophagy, LC3-II formation [6]: markedly reduced ISD-induced autophagy and cell death
- ISD-induced cell death [7]: markedly reduced ISD-induced autophagy and cell death
- Concentration (solubility, Fig. S7b) [8]: 2890 µg/mL and 2940 µg/mL
- solubility [8]: higher solubility compared to XQ2
- solubility ([8]; Concentration (solubility, Fig. S7b)): 2850 µg/mL (≈ 2370 µM)

From article PMC10545747, “Development of cyclopeptide inhibitors of cGAS targeting protein-DNA interaction and phase separation” (Nature Communications, 2023)
